Assay results published in US20070213291A1, “Therapeutically useful synthetic oligonucleotides” (priority 1999, published 2007).
Where two headings read alike, the source gives them in different places.

Tests used:
[1] = system: MCF-7 human breast cancer cells; assay: MCF-7 human breast tumor xenografts in female nude BALB/c mice; assay type: in vivo; settings: after 4 weeks of treatment, compared with other groups (group 1 saline)
Protocol: MCF-7 human breast cancer cells are implanted subcutaneously as xenografts, in female nude BALB/c mice. The mice are divided into 6 groups of 10 mice. […] After 4 weeks of treatment, the mice are sacrificed and tumor mass is determined.

[2] = system: Jurkat human leukemia T cells; assay: Inhibition of Jurkat human leukemia T cell proliferation (MTT reduction); assay type: cell-based; settings: for % INHIBITION of Jurkat human leukemia T cell proliferation: 100 μg/ml sequence, 48 h, 2.5×10^5 cells/ml
Outline: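 Jurkat cells at 2.5×10^5 cells/ml exposed to 100 μg/ml of 2–45-base A/C/G/T sequences (0 μg/ml control) for 48 h, 37° C, 5% CO2. Viability by MTT reduction read at 570 nm.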

[3] = system: MCF-7 human breast cancer cells; assay: Inhibition of MCF-7 cell proliferation (MTT); assay type: cell-based; settings: for inhibition at 1 µg/mL: Homo sapiens, MCF7
Outline: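 Cells at 2.5×10^5 cells/ml (GT 3- and 6-base series at 5×10^5 cells/ml) treated with 100 μg/ml of 2-45-base oligonucleotide sequences versus untreated control for 48 h at 37 °C, 5% CO2. Proliferation read by MTT reduction at 570 nm.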

[4] = system: Jurkat human leukemia T cells; assay: NuMA release into supernatant (ELISA); assay type: cell-based; settings: Jurkat, 50 μM sequence
Outline: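 Jurkat T cells (1×10^6/ml) exposed to GT-containing oligonucleotide sequences, at 50 μM in some experiments, for 24 h in some experiments. NuMA released into the supernatant quantified by commercial ELISA.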

[5] = system: THP-1 human acute monocytic leukemia cells; assay: Cytokine production by THP-1 cells (ELISA); assay type: cell-based; settings: THP-1, 1×10^6 cells, 100 μg/ml, 48 h
Outline: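 1×10^6 cells exposed to 100 μg/ml of each oligonucleotide sequence for 48 h at 37° C in 5% CO2, unless stated otherwise. Cytokines quantified in culture supernatant by ELISA, IL-12 assay detecting both p70 and free p40; values are fold increase over untreated control cells.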

[6] = system: LNCaP human prostate cancer cells; assay: LNCaP human prostate cancer xenografts in male nude nu/nu mice; assay type: in vivo; settings: after 4 weeks of treatment, compared with other groups (group 1 saline, group 5 BCG A-3)
Protocol: LNCaP human prostate cancer cells are implanted subcutaneously, as xenografts, in male nude nu/nu mice. The mice are divided into 5 groups of 10 mice. On day 0, group 1 mice receive saline, group 2 mice receive 3 base SEQ ID NO:8, group 3 mice receive 6 base GT SEQ ID NO:25, group 4 mice receive 6 base AG SEQ ID NO:45 and group 5 mice receive 45 base BCG A-3 SEQ ID NO:69. After 4 weeks of treatment, the mice are sacrificed and timor mass is determined.

chimpanzee PBMCs = assay: Cytokine production by chimpanzee PBMC (ELISA); assay type: cell-based; settings: PBMC of 4 healthy chimpanzees, 100 μg/ml, 48 h
Outline: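 PBMCs from 4 healthy chimpanzees (1×10^6 cells) were incubated 48 h at 37 °C, 5% CO2 with 100 μg/ml of each 6-base sequence. Supernatant IL-10, IL-12 (p70 plus free p40) and TNF-alpha were measured by ELISA. Values are fold increase over untreated control cells.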

[7] = system: Jurkat human leukemia T cells; assay: Apoptosis by phosphatidylserine/annexin V-FITC flow cytometry; assay type: cell-based; settings: 50 μM sequence
Outline: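 Jurkat cells were exposed to 3–7-base oligonucleotides (GT, ACGT, AG, GG, AGT, CGT sequences) at 50 μM. Separately, 6-base GT and complementary AC sequences, alone or hybridized 1:1 (10 min, 65 °C), were applied for 24 h. Phosphatidylserine exposure was quantified by flow cytometry with FITC-annexin V.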

rhesus monkey PBMCs = assay: Cytokine production by rhesus monkey PBMC (ELISA); assay type: cell-based; settings: PBMC of 4 healthy rhesus monkeys, 100 μg/ml, 48 h
Outline: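 Peripheral blood mononuclear cells taken from 4 healthy rhesus monkeys were cultured at 1×10^6 cells with 100 μg/ml of each test sequence for 48 h at 37° C. under 5% CO2. Cytokine levels in 100 μl of supernatant were quantified in pg/ml by commercial ELISA and reported as fold increase over untreated control cells.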

[8] = system: human peripheral blood mononuclear cells; assay: Cytokine production by human PBMC (ELISA); assay type: cell-based; settings: PBMC of 7 healthy humans, 100 μg/ml, 48 h
Outline: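 PBMC from 7 healthy donors, Ficoll-isolated; 1×10^6 cells incubated with 100 μg/ml oligonucleotide sequence for 48 h at 37 °C, 5% CO2. IL-1beta, IL-6, IL-10, IL-12 (p70 plus free p40) and TNF-alpha measured by ELISA in supernatant, expressed as fold increase over control cells.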

[9] = system: EL-4 murine T lymphoma cells; assay: EL-4 murine T lymphoma in C57/BL6 mice; assay type: in vivo; settings: after 4 weeks of treatment, compared with group 1 (saline)
Protocol: EL-4 murine T lymphoma cells are implanted into C57/BL6 mice. The mice are divided into 6 groups of 10 mice. On day 0, group 1 mice receive saline, group 2 mice receive 3 base GT SEQ ID NO:8, group 3 mice receive 6 base SEQ ID NO:25, group 4 mice receive 6 base AG SEQ ID NO:45, group 5 mice receive 18 base GT SEQ ID NO: 18 and group 6 mice receive 27 base GT SEQ ID NO:1. After 4 weeks of treatment, the mice are sacrificed and tumor mass is determined.

[10] = system: PC-3 human prostate cancer cells; assay: Inhibition of PC-3 cell proliferation (MTT); assay type: cell-based; settings: 100 μg/ml, 48 h, 5×10^5 cells/ml
Protocol: Cells were seeded in 6 (1 ml/well), 24 (0.5 ml/well) or 96 (0.1 ml/well) well flat-bottom microplates and were maintained at 37° C. in a 5% CO2 atmosphere. Unless stated otherwise, 2.5×10^5 cells/ml were incubated with 0 μg/ml (control) and 100 μg/ml (treated) of 2 to 45 base sequences containing A, C, G and T for 48 h.
Cell proliferation was measured using dimethylthiazol-diphenyl-tetrazolium (MTT) reduction (Mosman et al. J. Immunol. Methods 65:55, 1983). MTT was measured at a wavelength of 570 nm using a multiplate spectrophotometer reader (ELX800, Bio-TEK Instruments Inc., Winooski, Vt.).
PC-3 prostate cancer cells are a p53 mutated, androgen-independent human solid tumor model. PC-3 cells (5×10^5 cells/ml) were incubated with 3 and 6 base GT sequences (Table 8).

[11] = 5-fluorouracil 0.1 μg/ml, alone or with sequence at 1.0 μg/ml

Compound: O=c1[nH]cc(F)c(=O)[nH]1 [5-Fluorouracil, reference compound]
- tumor mass [1]: less tumor mass than group 1 mice
- % INHIBITION of Jurkat proliferation, 5-Fluorouracil 0.1 μg/ml [2, 11]: 3%
- % INHIBITION of Jurkat proliferation, 5-Fluorouracil 10.0 μg/ml ([2]; 5-fluorouracil 10.0 μg/ml, alone or with sequence at 1.0 μg/ml): 38%
- inhibition at 1 µg/mL ([2]; Homo sapiens, Jurkat, 5-fluorouracil 1.0 μg/ml, alone or with sequence at 1.0 μg/ml): 14%
- % INHIBITION of MCF-7 proliferation, 5-Fluorouracil 0.1 μg/ml [3, 11]: 13%
- inhibition at 1 µg/mL ([3]; 5-fluorouracil 1.0 μg/ml, alone or with sequence at 1.0 μg/ml, read-out: % INHIBITION of MCF-7 proliferation, 5-Fluorouracil 1.0 μg/ml): 28%

Compound: CC/C(=C(\c1ccccc1)c1ccc(OCCN(C)C)cc1)c1ccccc1 [Tamoxifen, reference compound]
- tumor mass [1]: less tumor mass than group 1 mice
- inhibition at 1 µg/mL ([3]; tamoxifen 1.0 μg/ml, alone or with sequence at 1.0 μg/ml, read-out: % INHIBITION of MCF-7 proliferation, Tamoxifen 1.0 μg/ml): 18%
- % INHIBITION of MCF-7 proliferation, Tamoxifen 0.1 μg/ml ([3]; tamoxifen 0.1 μg/ml, alone or with sequence at 1.0 μg/ml): 10%
- % INHIBITION of MCF-7 proliferation, Tamoxifen 10.0 μg/ml ([3]; tamoxifen 10.0 μg/ml, alone or with sequence at 1.0 μg/ml): 15%

Compound: GGGAGG (unmodified DNA) [SEQ ID NO:45]
- % NuMA released (treated vs untreated cells) [4]: 74%
- ↑ IL-6 (fold increase treated vs control cells) [5]: 23.2x
- ↑ IL-12 (fold increase treated vs control cells) ([5]; p70 complex and free p40): −1.6x
- tumor mass [6]: less tumor mass than groups 1 and 5 mice
- IL-10 fold increase: mean +/− SD (chimpanzee PBMCs): 9.9 +/− 9.2 fold increase
- IL-12 fold increase: mean +/− SD (chimpanzee PBMCs): 15.9 +/− 10.7 fold increase
- TNF-alpha fold increase: mean +/− SD (chimpanzee PBMCs): 14.5 +/− 6.9 fold increase
- % of cells in apoptosis (positive for PS/A-V staining) [7]: 27%
- IL-10 fold increase: mean +/− SD (rhesus monkey PBMCs): 1.1 +/− 0.1 fold increase
- IL-12 fold increase: mean +/− SD (rhesus monkey PBMCs): 11.9 +/− 4.5 fold increase
- TNF-alpha fold increase: mean +/− SD (rhesus monkey PBMCs): 16.7 +/− 4.6 fold increase
- IL-1 beta fold increase: mean +/− SD [8]: 13.6 +/− 14.9 fold increase
- IL-6 fold increase: mean +/− SD [8]: 24.7 +/− 16.5 fold increase
- IL-10 fold increase: mean +/− SD [8]: 6.0 +/− 5.5 fold increase
- IL-12 fold increase: mean +/− SD [8]: 20.7 +/− 10.3 fold increase
- tumor mass [9]: less tumor mass than group 1 mice
- % INHIBITION of Jurkat human leukemia T cell proliferation [2]: 28%

Compound: GTG (chemistry not given here) [SEQ ID NO:8]
- % NuMA released (treated vs untreated cells) [4]: 97%
- tumor mass [6]: less tumor mass than groups 1 and 5 mice
- % of cells in apoptosis (positive for PS/A-V staining) [7]: 21%
- tumor mass [9]: less tumor mass than group 1 mice
- % INHIBITION of PC-3 human prostate cancer cell proliferation [10]: 13%
- % INHIBITION of Jurkat human leukemia T cell proliferation [2]: 46%
- % INHIBITION of MCF-7 human breast cancer cell proliferation ([3]; 100 μg/ml, 48 h, 5×10^5 cells/ml): 18%
